From paper PMC8175350, “Drug repurposing screens identify chemical entities for the development of COVID-19 interventions” (Nature Communications, 2021)
“And” between values parts separate entries of the source, which are not always exact repeats. Equal values may be shown once. Read-outs that look alike come from different tables or passages of the source.

Key:
HeLa-ACE2 cells [1] = test: cells; conditions: Homo sapiens
SARS-CoV-2 [2] = test: microbe, parasite or virus in culture; format: cell-based; conditions: for SARS-CoV-2 % infected cells: 10 µM after 1 h infection; for TOA: HeLa-ACE2, replicate wells n=1-3
Calu-3 cells [3] = conditions: read-out: Calu-3 cell count EC50 GeoMean
in vitro = conditions: human, Calu-3 uninfected cytotoxicity CC50 GeoMean
HeLa-ACE2 cells [4] = test: Total cell count in the HeLa-ACE2 TOA (time of addition) assay; format: cell-based, human; conditions: Homo sapiens, HeLa-ACE2; read-out: HeLa-ACE2 TOA cell count EC50 GeoMean
SARS-CoV-2 [5] = test: microbe, parasite or virus in culture; format: cell-based; conditions: for %infected: Calu-3, replicate wells n=1, n=3
HeLa-ACE2 cells [6] = test: Uninfected HeLa-ACE2 24 h live/dead cytotoxicity counter screen; format: cell-based, human; conditions: for cytotox: HeLa-ACE2, replicate wells n=1-3
[7] = as above; format: cell-based, human; conditions: human, uninfected HeLa-ACE2 cells, geomean; read-out: uninfected HeLa-ACE2 cytotoxicity CC50
Calu-3 cells [8] = tested on: Calu-3 cells
SARS-CoV-2 [9] = format: cell-based
SARS-CoV-2 [10] = test: microbe, parasite or virus in culture; format: cell-based; conditions: for %infected: replicate wells n=1-3
Calu-3 cells [11] = test: cells; conditions: Homo sapiens, Calu-3, 48 h, read-out: Calu-3 cell count Sinf Average

Cc1cccc(/C=N/Nc2cc(N3CCOCC3)nc(OCCc3ccccn3)n2)c1 [Apilimod]
Emax (HeLa-ACE2 cells [1]; HeLa-ACE2, 24 h, read-out: HeLa-ACE2 cell count Sinf Average): 100%
EC50 (HeLa-ACE2 cells [1]; HeLa-ACE2, read-out: cell count in infection assay EC50, HeLa-ACE2, geomean, ^↑ = increasing dose-response curve): > 2400 nM
SARS-CoV-2 % infected cells (SARS-CoV-2 [2]; 4:00:00 post infection): 0.1789% and 0.1674% and 0.3723%
SARS-CoV-2 % infected cells (SARS-CoV-2 [2]; 5:00:00): 0.5955% and 0.5104% and 0.3072%
SARS-CoV-2 % infected cells (SARS-CoV-2 [2]; 6:00:00): 15.0073% and 13.3408% and 11.3931%
SARS-CoV-2 % infected cells (SARS-CoV-2 [2]; 7:00:00): 26.4613% and 25.6934% and 26.6142%
SARS-CoV-2 % infected cells (SARS-CoV-2 [2]; 8:00:00): 25.5362% and 27.3903% and 25.8074%
SARS-CoV-2 % infected cells (SARS-CoV-2 [2]; 10:00:00): 26.7887% and 26.2316% and 26.281%
SARS-CoV-2 % infected cells (SARS-CoV-2 [2]; 11:00:00): 30.9861% and 29.9763% and 30.0495%
SARS-CoV-2 % infected cells (SARS-CoV-2 [2]; 12:00:00): 30.3761% and 30.6313% and 31.3141%
SARS-CoV-2 % infected cells (SARS-CoV-2 [2]; 24:00:00): 17.8372% and 19.3932% and 18.4264%
activity when treatment was initiated at 1 hpi (SARS-CoV-2 [2]; HeLa-ACE2, 10 µM): Loss of activity
TOA (SARS-CoV-2 [2]; concentration log[M] -5.61909): -9.8778 and -6.262 and 0.3048 and -11.9309 and -26.5472 and -5.999 and -10.1028 and 0.08491 and -22.8314
TOA (SARS-CoV-2 [2]; concentration log[M] -6.09621): 1.8452 and 11.477 and 4.5258 and -10.0091 and -14.0586 and -2.797 and -23.1834 and -27.6557 and -36.518
TOA (SARS-CoV-2 [2]; concentration log[M] -6.57334): -3.994 and -3.466 and -5.79 and -4.984 and -4.372 and -2.992 and -21.4509 and 1.122 and -26.1046
TOA (SARS-CoV-2 [2]; concentration log[M] -7.05046): -6.181 and -4.5978 and -2.954 and -15.6715 and -7.849 and -0.2917 and -3.649 and -3.511 and -18.2837
TOA (SARS-CoV-2 [2]; concentration log[M] -7.52758): 6.077 and -0.625 and 10.6098 and -1.822 and 4.214 and -1.579 and 5.171 and 1.731 and -77.382
TOA (SARS-CoV-2 [2]; concentration log[M] -8.0047): 2.779 and 3.019 and 8.825 and -4.236 and -3.9816 and -0.9799 and 1.304 and -2.325 and -36.3674
TOA (SARS-CoV-2 [2]; concentration log[M] -8.48182): 7.953 and 7.587 and 8.026 and -5.856 and -0.7172 and 2.883 and 9.017 and -1.346 and -21.1061
TOA (SARS-CoV-2 [2]; concentration log[M] -8.95894): 0.4128 and 0.7327 and 13.745 and -6.2 and 7.839 and 1.622 and 7.708 and 2.325 and 1.297
EC50 (SARS-CoV-2 [2]; Severe acute respiratory syndrome coronavirus 2, HeLa-ACE2, HeLa-ACE2, fixed 10 hpi, geomean, read-out: CoV-2 TOA EC50): > 2400 nM
EC50 (SARS-CoV-2 [2]; read-out: HeLa-ACE2 TOA CoV-2 EC50 GeoMean): > 9610 nM
EC50 (Calu-3 cells [3]): > 9980 nM
CC50 at 48 h (in vitro): > 22700 nM
EC50 (HeLa-ACE2 cells [4]): > 9610 nM
%infected (SARS-CoV-2 [5]; concentration log[M] -5.00096): -58.2494% and -10.7285% and -2.646% and 11.3057% and -47.5294% and -51.353%
%infected (SARS-CoV-2 [5]; concentration log[M] -5.47808): -10.4468% and 0.966% and 9.424% and 3.404% and -12.1011% and -29.1583%
%infected (SARS-CoV-2 [5]; concentration log[M] -6.08014): 2.91% and 6.263% and 12.1167% and 11.1729% and -9.57% and -12.4389%
%infected (SARS-CoV-2 [5]; concentration log[M] -6.42922): 21.192% and -5.066% and 8.086% and -7.067% and 14.7327% and 9.4894%
%infected (SARS-CoV-2 [5]; concentration log[M] -6.90623): 6.025% and 8.588% and -2.01% and -3.119% and -8.7% and -28.761%
%infected (SARS-CoV-2 [5]; concentration log[M] -7.50836): -9.733% and 6.842% and -19.0732% and 2.18% and 27.3224% and 13.8795%
%infected (SARS-CoV-2 [5]; concentration log[M] -7.85886): -0.02646% and -15.3004% and -8.282% and -4.911% and 23.6525% and 32.9983%
%infected (SARS-CoV-2 [5]; concentration log[M] -8.33602): -3.111% and 7.385% and 13.7435% and 0.4251% and 25.7217% and 25.5685%
Emax (SARS-CoV-2 [5]; Severe acute respiratory syndrome coronavirus 2, Calu-3, 48 h, read-out: Calu-3 CoV-2 Sinf Average): 100%
EC50 (SARS-CoV-2 [5]; read-out: Calu-3 CoV-2 EC50 GeoMean): > 9380 nM
Calu-3 SI (SARS-CoV-2 [5]; selectivity index, uninfected Calu-3 CC50 / SARS-CoV-2 EC50): > 2.42
cytotox (HeLa-ACE2 cells [6]; concentration log[M] -5): -15.1899 and -14.2304 and -15.9372 and -48.9424 and -19.1078 and -64.1429 and -33.3149 and -48.2124 and -41.1568
cytotox (HeLa-ACE2 cells [6]; concentration log[M] -5.47712): -17.5527 and -25.9243 and -24.6903 and -15.9737 and -27.2862 and -50.2857 and -23.1323 and -17.6598 and -11.2347
cytotox (HeLa-ACE2 cells [6]; concentration log[M] -5.95424): -21.6878 and -13.7145 and -16.6804 and -1.094 and -5.874 and -20.5714 and -18.1516 and -18.9599 and -15.1279
cytotox (HeLa-ACE2 cells [6]; concentration log[M] -6.43136): -15.6962 and -19.7334 and -18.8274 and -9.409 and -6.171 and -21.1429 and -10.736 and -20.585 and -14.4605
cytotox (HeLa-ACE2 cells [6]; concentration log[M] -6.90849): -10.4641 and -3.052 and -4.5417 and -0.2188 and 4.684 and -6.286 and -9.519 and -8.4507 and -3.003
cytotox (HeLa-ACE2 cells [6]; concentration log[M] -7.38561): -11.3924 and -4.944 and -1.156 and 4.012 and 4.981 and -8.571 and -7.637 and -6.609 and -5.006
cytotox (HeLa-ACE2 cells [6]; concentration log[M] -7.86273): 2.7 and 20.6793 and 5.12 and -0.3647 and 26.8401 and -1.429 and 8.744 and -0.2167 and 1.335
cytotox (HeLa-ACE2 cells [6]; concentration log[M] -8.33985): 2.785 and -0.6449 and 6.028 and -5.1787 and 6.3197 and -9.571 and 2.435 and -18.4182 and -5.673
HeLa-ACE2 uninfected cytotoxicity Sinf Average (HeLa-ACE2 cells [6]; human, uninfected HeLa-ACE2 cells, 24 h): -100%
CC50 (HeLa-ACE2 cells [6]; read-out: HeLa-ACE2 uninfected cytotoxicity CC50 GeoMean): > 27800 nM
CC50 at 24 h [7]: > 11500 nM
uninfected Calu-3 CC50 (Calu-3 cells [8]): > 22.719 ×÷ 1.728 (n=4) μM
Calu-3 uninfected cytotoxicity Sinf Average (Calu-3 cells [8]; human, 48 h): -100%
effect on viral replication in ALI-HBECs (SARS-CoV-2 [9]): did not
increase in EC50 from MOI = 0.09 to MOI = 2.2 (SARS-CoV-2 [10]; HeLa-ACE2): 3.7 fold
EC50 (SARS-CoV-2 [10]; HeLa-ACE2, geomean, read-out: SARS-CoV-2 EC50): 11.3 nM
EC50 (SARS-CoV-2 [10]; HeLa-ACE2, individual values of 9 independent experiments, read-out: EC50 (µM), Fig 1c): 32 nM and 10 nM (2×) and 9 nM (3×) and 6 nM (2×) and 35 nM
%infected (SARS-CoV-2 [10]; HeLa-ACE2, concentration log[M] -5.61909): -89.9366% and -97.9564% and -96.6883% and -98.5854% and -99.176% and -97.4315% and -98.076% and -88.0351% and -79.0377%
%infected (SARS-CoV-2 [10]; HeLa-ACE2, concentration log[M] -6.09621): -87.038% and -98.4457% and -97.9148% and -98.877% and -98.5692% and -99.1064% and -97.5527% and -92.9215% and -87.0799%
%infected (SARS-CoV-2 [10]; HeLa-ACE2, concentration log[M] -6.57334): -75.6225% and -96.1764% and -98.2769% and -98.0074% and -97.3703% and -99.7483% and -98.3422% and -89.6186% and -88.4431%
%infected (SARS-CoV-2 [10]; HeLa-ACE2, concentration log[M] -7.05046): -82.6962% and -96.6541% and -97.5624% and -97.8117% and -96.6757% and -95.0973% and -96.8567% and -85.1569% and -75.3432%
%infected (SARS-CoV-2 [10]; HeLa-ACE2, concentration log[M] -7.52758): -73.6156% and -84.2045% and -91.7586% and -85.2086% and -88.488% and -83.6715% and -88.6894% and -80.6843% and -66.0801%
%infected (SARS-CoV-2 [10]; HeLa-ACE2, concentration log[M] -8.0047): -72.126% and -55.1215% and -37.7284% and -49.8809% and -50.2572% and -55.8328% and -53.8485%
Emax (SARS-CoV-2 [10]; Severe acute respiratory syndrome coronavirus 2, HeLa-ACE2, 24 h, read-out: HeLa-ACE2 CoV-2 Sinf Average): 93%
EC50 (SARS-CoV-2 [10]; Severe acute respiratory syndrome coronavirus 2, HeLa-ACE2, HeLa-ACE2, MOI 0.09, read-out: EC50): 7.3 nM
EC50 (SARS-CoV-2 [10]; Severe acute respiratory syndrome coronavirus 2, HeLa-ACE2, HeLa-ACE2, MOI 0.26, read-out: EC50): 13.6 nM
EC50 (SARS-CoV-2 [10]; Severe acute respiratory syndrome coronavirus 2, HeLa-ACE2, HeLa-ACE2, MOI 0.51, read-out: EC50): 18.5 nM
EC50 (SARS-CoV-2 [10]; Severe acute respiratory syndrome coronavirus 2, HeLa-ACE2, HeLa-ACE2, MOI 1.1, read-out: EC50): 19.6 nM
EC50 (SARS-CoV-2 [10]; Severe acute respiratory syndrome coronavirus 2, HeLa-ACE2, HeLa-ACE2, MOI 2.2, read-out: EC50): 27 nM
EC50 (SARS-CoV-2 [10]; Severe acute respiratory syndrome coronavirus 2, HeLa-ACE2, HeLa-ACE2, geomean, read-out: SARS-CoV-2 EC50): 11 nM
EC50 (SARS-CoV-2 [10]; Severe acute respiratory syndrome coronavirus 2, HeLa-ACE2, detail column, read-out: HeLa-ACE2 CoV-2 EC50 GeoMean): < 6.39 nM
Emax (SARS-CoV-2 [10]; Severe acute respiratory syndrome coronavirus 2, HeLa-ACE2, of uninfected cells at the highest effective concentrations, read-out: maximal efficacy): 85 to 90%
HeLa-ACE2 SI (SARS-CoV-2 [10]; selectivity index, uninfected HeLa-ACE2 CC50 / SARS-CoV-2 EC50): > 4353.33
Emax (Calu-3 cells [11]): 100%
